In patent US20220380801A1, “TRIPARTITE SYSTEMS FOR PROTEIN DIMERIZATION AND METHODS OF USE” (priority 2019, published 2022):

How the values were obtained:
hESC line Sa121 = assay: PRSIM-based kill switch activity in ESC cells (confluency); type: cell-based, human
Procedure: The hESC line Sa121 (TakaraBio Europe) was also transduced with the lentiviral particles encoding the PRSIM-based kill switch fusion protein described above (SEQ ID 223). Cells (passage 19) were plated at 3.5×10^5 cells/cm^2 in the DEF-CS culture system, and the cells were transduced 30 h later. 24 h after transduction, puromycin selection was initiated and the antibiotic selection was maintained until a stable cell pool was achieved.
To test the induction of the kill switch in Sa121 ES cells, the cells were plated at 3.5×10^5/cm^2 two days before inducing kill switch activity by treating with simeprevir at concentrations from 10 nm to 1 uM. The cells were imaged using the Incucyte S3 (EssenBioscience) at intervals ranging from 10-20 min; kill switch efficiency was quantified by image analysis of confluency.

[1] = system: endogenous IL-2 gene in HEK293 cells; assay: Endogenous gene regulation assay (CRISPRa); type: cell-based, human; conditions: 300 nM simeprevir, split dCas9/AD cassette and IL-2 targeted gRNA
Text: CRISPRa relies on the use of a dead Cas9 enzyme (dCas9) with no endonuclease activity to bind to a target site within the promoter region of an endogenous gene via a single guide RNA. Upon recruitment of a transcriptional activator, transcription of the endogenous gene is initiated.
The dCas9 and AD are separately fused to the two protein components of the CID such that, only in the presence of the small molecule inducer, the AD is brought into close proximity to dCas9, allowing recruitment of the transcription machinery to the promoter region of an endogenous gene via a single guide RNA (sgRNA). In this example, an activation plasmid was generated consisting of two functional units; an AD fused to the HCV NS3/4A PR (S139A) (SEQ ID 226) and a dCas9 fused to three tandem copies of PRSIM-23 (SEQ ID 228). The sequences are preceded by a CMV promoter and separated by an internal ribosome entry site (IRES). A gRNA plasmid was generated by golden gate assembly, utilising BsaI. […]
Transcriptional regulation assays were performed in adherent HEK293 cells cultured in 96-well plates. Cells enzymatically dissociated from a tissue culture flask were counted and plated at 2.5×10^4 cells/well. […] 72 hours post-treatment (day 6), the cell supernatant was harvested and IL-2 quantified using a V-PLEX Human IL-2 Kit (Meso Scale Discovery), as per the manufacturer's protocol.

S139A HCV NS3/4A PR = S139A HCV NS3/4A PR (Hepatitis C virus subtype 1a, UniProt A8DG50, A1066T/I1043Q/I1044E/L1039E/L1040E/L1047Q/S1165A, form not given); assay: Isothermal calorimetry; type: binding; conditions: ITC, 37° C.
Procedure: (§1) Isothermal calorimetry (ITC) was carried out using the Auto-ITC 200 (Malvern), with a preliminary injection of 0.4 μl followed by 19 injections of 2 μl each, at 120 second intervals. Rotation of the solution was set to 750 rpm and temperature 37° C. […] The WT was run once; the S139A mutant was run in duplicate. The data were analysed with the ITC-PEAQ software (Malvern) using a one-site binding model and reference subtraction point-by-point.

WT HCV NS3/4A PR = WT HCV NS3/4A PR (Hepatitis C virus subtype 1a, UniProt A8DG50, A1066T/I1043Q/I1044E/L1039E/L1040E/L1047Q, form not given); assay: Isothermal calorimetry; type: binding; conditions: ITC, 37° C.
Procedure: as §1

[2] = system: HCV NS3/4A PR (S139A):PRSIM_23; assay: HTRF complex formation with alternative HCV PR inhibitors; type: binding, Hepatitis C virus subtype 1a; conditions: simeprevir substituted with alternative inhibitor
Procedure: (§2) scFv and Tn3 PRSIM binding molecules that were selective for the HCV NS3/4A PR (S139A) were identified in homogeneous time-resolved fluorescence (HTRF®) assays run in parallel to measure binding in the presence and absence of simeprevir. HCV NS3/4A PR (S139A), and serial dilutions of purified PRSIM binding molecules, were prepared in assay buffer (PBS containing 0.4 M potassium fluoride and 0.1% BSA). Streptavidin cryptate (Cisbio) was pre-mixed with either anti-FLAG XL665 (to detect the Tn3 molecules) or anti-c-myc XL665 (to detect the scFv molecules) in assay buffer. For each assay 2.5 μl of sample titration was added to 2.5 μl HCV NS3/4A PR (S139A) and 2.5 μl of pre-mixed detection reagents. Either 2.5 μl simeprevir or 2.5 μl of a DMSO blank were also added to each well. […] Assay plates were incubated overnight at 4° C., prior to reading the time resolved fluorescence at 620 nm and 665 nm emission wavelengths using a PerkinElmer Envision plate reader. Data was analysed by calculating % Delta F values for each sample. Delta F was determined according to equation 1.
(§3) There are several small molecule inhibitors that are known to bind the HCV NS3/4A protease and have been approved for human use. A panel of such small molecules were assessed for their ability to induce complex formation between HCV NS3/4A PR (S139A) and PRSIM_23 or PRSIM_57. […]

[3] = system: HCV NS3/4A PR (S139A):PRSIM_57; assay: as above; type: binding, Hepatitis C virus subtype 1a; conditions: simeprevir substituted with alternative inhibitor
Procedure: as §2, §3

**Q.** How did the cell killing (hESC line Sa121; 10 nM simeprevir, 4 hours timeframe) turn out when COc1ccc2c(O[C@@H]3C[C@H]4C(=O)N[C@]5(C(=O)NS(=O)(=O)C6CC6)C[C@H]5/C=C\CCCCN(C)C(=O)[C@@H]4C3)cc(-c3nc(C(C)C)cs3)nc2c1C [simeprevir] was run?
**A.** maximal cell killing was not reached

**Q.** What about the cell killing (hESC line Sa121; 100 nM simeprevir, within 4 hours) of the same compound?
**A.** ~90%

**Q.** And the “onset of cell killing” value (hESC line Sa121; 1 μM simeprevir)?
**A.** ~15 min

**Q.** What about the “cells eliminated (cell confluency)” value (hESC line Sa121; 1 μM simeprevir, within 4 hours, kill switch-transduced Sa121) of the same compound?
**A.** up to 95%

**Q.** And the response to simeprevir (hESC line Sa121; wt (non-transduced) Sa121 cells)?
**A.** did not respond to treatment with simeprevir

**Q.** And the IL-2 secretion [1]?
**A.** resulted in secretion of IL-2

**Q.** And the stoichiometry (S139A HCV NS3/4A PR)?
**A.** ~0.6 Sim/NS3 binding sites

**Q.** What about the ΔH (S139A HCV NS3/4A PR) of the same compound?
**A.** ~22 kcal/mol

**Q.** What about the stoichiometry (WT HCV NS3/4A PR) of the same compound?
**A.** ~0.6 Sim/NS3 binding sites

**Q.** And the ΔH (WT HCV NS3/4A PR)?
**A.** ~22 kcal/mol

**Q.** And the “induction of complex formation” value [2]?
**A.** induction of complex formation was specific for simeprevir

**Q.** And the “induction of complex formation” value [3]?
**A.** induction of complex formation was specific for simeprevir
